Experiments:
[1] = test system: small intestine of SCID-Beige mice; assay: In vivo toxicity in mice, 28 days (small intestine H&E, Ki67, body weight); design: species or system mouse (SCID-Beige)
Experimental: Groups of 9–10 SCID-Beige mice were dosed at Translational Drug Discovery with vehicle, 1.5 mg/kg or 5 mg/kg RXC004 orally twice daily, or 5 mg/kg RXC004 orally once daily, for 28 days. Formulation: 5% DMSO, 95% hydroxyl propyl beta cyclodextrin (25% w/v). Formalin-fixed, paraffin-embedded (FFPE) samples from the small intestine were assessed by hematoxylin and eosin (H&E) and/or Ki67 staining at Histologix.

AsPC1 xenograft = assay: Xenograft pilot study; format: in vivo, mouse (athymic nude); conditions: AsPC1, 1.5 mg/kg twice daily oral
Experimental: (§1) The in vivo pilot studies were performed at Axis Bioservices. HPAF-II (5 × 10^6 cells; athymic nude mice), AsPC1 (3 × 10^6 cells; athymic nude mice), and SNU-1411 (1 × 10^7 cells; NOD-SCID mice) were implanted bilaterally, subcutaneously, whereas HCT116 (3 × 10^6 cells; athymic nude mice) were implanted in a single flank. Animals were randomized into the indicated groups and treatment initiated once tumor volumes reached approximately 100–150 mm^3. Dosing was either 1.5 mg/kg twice daily RXC004 for 7–13 days then once daily for the remainder of study (up to 29 days), or 28 days 1.5 mg/kg twice daily RXC004 for HCT116. In these and all other animal studies, unless otherwise specified, RXC004 was dosed orally in 0.5% carboxymethylcellulose + 0.1% Tween-80. For AsPC1, an ascites model, end of study tumor weight (mg) was measured. A total of 12 hours after the final dose, RNA was extracted [GenElute RNA isolation kit (#RTN70, Sigma)] from snap frozen tumor for qRT-PCR expression analysis of Axin2, c-Myc, RNF43, MUC4, and MUC5AC relative to appropriate housekeepers.

HCT116 xenograft = assay: Xenograft pilot study; format: in vivo, mouse (athymic nude); conditions: HCT116, 1.5 mg/kg twice daily oral, 28 days
Experimental: as §1

HPAF-II xenograft = assay: Xenograft pilot study; format: in vivo, mouse (athymic nude); conditions: 1.5 mg/kg twice daily oral
Experimental: as §1

[2] = Pharmacokinetic/pharmacodynamic analysis in SNU-1411/NOD-SCID mice, 7 days; format: in vivo, mouse (NOD-SCID); conditions: NOD-SCID, mouse, plasma, oral; 20 ng/mL equivalent to 10× IC50; read-out: total plasma concentration equivalent to free IC50
Experimental: (§2) To explore dose–response effects in vivo, SNU-1411 (1 × 10^7 cells) were implanted into NOD-SCID mice subcutaneously at Axis Bioservices. Animals were randomized into the indicated groups and oral dosing of RXC004 was initiated when tumors reached approximately 200 mm^3. Tumor volume measurements were taken at day 19, n ≥9 per group. Pharmacokinetic/pharmacodynamic analysis in SNU1411/NOD-SCID mice was performed in a separate study at Axis Biosciences, with tissue and plasma extracted for assessments after 7 days of RXC004 dosing. Tumor was divided into two sections; one section snap frozen and the other processed by FFPE. RXC004 levels were determined in snap frozen tumor and blood samples by LC/MS-MS. Expression analysis of the indicated genes was performed on snap frozen tumor as described above. Serial FFPE tumor sections were stained with H&E, anti-Ki67 (Abcam #Ab15580) or the dual mucin stain Alcian-blue/periodic acid shift (AB-PAS) at Histologix. IHC images were quantified using HALO software and modules (Indica Labs). The AB-PAS images were analyzed with the area quantification module on tumor area. A classifier was trained to detect differentiated and nondifferentiated tumor areas in RXC004-treated tumors using the AB-PAS–stained slides. Image registration was used to assign annotations from AB-PAS images to Ki67 images. The Ki67 images were analyzed with the multiplex IHC module and number of Ki67-positive cells were determined per mm^2 of total or differentiated tumor area.

SNU-1411 xenograft [3] = assay: as above; format: in vivo, mouse (NOD-SCID)
Experimental: as §2

SNU-1411 xenograft [4] = assay: In vivo 18FDG-PET; design: species or system mouse (NOD-SCID); conditions: SNU-1411, 5 mg/kg once daily
Experimental: Experiment was performed at Medicines Discovery Catapult. SNU-1411 (1 × 10^7 cells; NOD-SCID mice) or HPAF-II (1 × 10^7 cells; NOD-SCID mice) were implanted subcutaneously and treatment with RXC004 (5 mg/kg once daily) or vehicle commenced when tumors reached approximately 200 mm^3. Mice were imaged prior to dosing, day 3 and day 7 after dosing. A 10 MBq injection of ^18FDG (PETNET), with a 45-minute washout was followed by a 20-minute PET scan using a Siemens Inveon PET scanner. Tissues removed on day 7 for biodistribution analysis were assessed using a PerkinElmer Wallac Wizard Gamma counter.

B16F10 tumors = assay: B16F10/SCID-Beige model; format: in vivo, mouse (SCID-Beige); conditions: 5 mg/kg once daily for 21 days, immunocompromised mice
Experimental: B16F10/SCID-Beige model was performed at Axis Bioservices. Mouse B16F10 cells (2 × 10^5) were subcutaneously implanted in flanks of the immunocompromised male SCID-Beige mice. Treatment with RXC004 (5 mg/kg once daily) was initiated at day 3, once the tumors were palpable, and tumor volume assessed over time.

CT26 tumors = assay: CT26/BALB/c syngeneic model; format: in vivo, mouse (BALB/c); conditions: RXC004 1.5 or 5 mg/kg once daily; anti-PD-1 10 mg/kg every 3 days
Experimental: CT26/BALB/c syngeneic model was performed at ProQuinase GmbH. Mouse CT26 cells (5 × 10^5) were subcutaneously implanted in the flanks of the immunocompetent female BALB/c mice. Treatment was initiated once tumors reached approximately 50 mm^3. RXC004 was dosed orally at 1.5 or 5 mg/kg (once daily). Anti-PD-1 (BioXCell) or isotype control was dosed every 3 days at 10 mg/kg i.p. Tumor volume was measured over time. For immunophenotyping the tumor infiltrate, tumors from a separate study were resected at day 14, weighed, digested, and stained for flow cytometry analysis by Beckton Dickenson LSR Fortessa. T-cell analysis panel included viability dye, CD45, CD3, CD4, CD8, CD25, and FOXP3.

## Cc1c(-c2ccnc(C(F)(F)F)c2)ncn1CC(=O)Nc1ccc(-c2cnccn2)cn1 [RXC004, 2-[5-methyl-4-[2-(trifluoromethyl)-4-pyridyl]imidazol-1-yl]-N-(5-pyrazin-2-yl-2-pyridyl)acetamide]
[1]; 1.5 mg/kg twice daily
  Ki67 proliferation marker in intestinal crypts: no effect on the Ki67 proliferation marker
  villi architecture: No effects
[1]; 5 mg/kg once daily
  villi architecture: No effects
[1]; 5 mg/kg twice daily
  Ki67 proliferation marker in intestinal crypts: clear decrease
  body weight: loss of body weight
[1]; 5 mg/kg twice daily, only in some animals
  villi architecture: Disruption of villi architecture
AsPC1 xenograft
  Wnt-responsive gene expression in tumor including c-Myc: inhibition of Wnt-responsive gene expression
  tumor growth (tumor weight): reduction in tumor growth
HCT116 xenograft
  tumor growth: No effect
HPAF-II xenograft
  Wnt-responsive gene expression in tumor including c-Myc: inhibition of Wnt-responsive gene expression
  tumor growth: reduction in tumor growth
[2]
  IC50: 2 ng/mL
SNU-1411 xenograft [3]; 1.5 or 5 mg/kg once daily, 7 days
  c-Myc gene expression in tumor: Inhibition of c-Myc gene expression in tumor
SNU-1411 xenograft [3]; intermediate effects at 1.5 mg/kg once daily, stronger at 5 mg/kg once daily
  tumor differentiation and mucin levels (Alcian-blue/PAS): increased tumor differentiation and increased mucin levels
SNU-1411 xenograft [3]; oral 1.5 or 5 mg/kg once daily, 7 days
  dose proportionality of levels in plasma and tumor: good dose proportionality
SNU-1411 xenograft [3]; total tumor area, more significantly in differentiated tumor
  Ki67-positive cells in tumor: Ki67-positive cells were reduced
SNU-1411 xenograft [4]; 7-day dosing
  18FDG tumor:blood ratios: significant decrease in tumor:blood ratios
SNU-1411 xenograft [4]; day 7, versus vehicle
  decrease in maximum standardized uptake value (18FDG-PET): 31%
B16F10 tumors
  tumor growth: did not reduce tumor growth
CT26 tumors
  tumor growth: limited effect on tumor growth

Source: article PMC10010340, “The Wnt Pathway Inhibitor RXC004 Blocks Tumor Growth and Reverses Immune Evasion in Wnt Ligand–dependent Cancer Models” (Cancer Research Communications, 2022)
